Laboratory results published in patent publication US7998949B2, “Bicyclic heterocycles, drugs containing said compounds, use thereof, and method for production thereof” (Boehringer Ingelheim International GmbH, priority 2007, dated 2011).

The compounds below were run against T1, human EGF-R (Homo sapiens, UniProt P00533) (assay: Inhibition of the EGFR-dependent proliferation (EGF-stimulated cell line expressing human EGF-R, Cell Titer 96 assay)). Conditions: murine haematopoietic cell line expressing functional human EGF-R; 20 ng/ml human EGF; 48 hours at 37° C.
T1 construct: expressed in transfected cells
T1 sequence (P00533 25-1210): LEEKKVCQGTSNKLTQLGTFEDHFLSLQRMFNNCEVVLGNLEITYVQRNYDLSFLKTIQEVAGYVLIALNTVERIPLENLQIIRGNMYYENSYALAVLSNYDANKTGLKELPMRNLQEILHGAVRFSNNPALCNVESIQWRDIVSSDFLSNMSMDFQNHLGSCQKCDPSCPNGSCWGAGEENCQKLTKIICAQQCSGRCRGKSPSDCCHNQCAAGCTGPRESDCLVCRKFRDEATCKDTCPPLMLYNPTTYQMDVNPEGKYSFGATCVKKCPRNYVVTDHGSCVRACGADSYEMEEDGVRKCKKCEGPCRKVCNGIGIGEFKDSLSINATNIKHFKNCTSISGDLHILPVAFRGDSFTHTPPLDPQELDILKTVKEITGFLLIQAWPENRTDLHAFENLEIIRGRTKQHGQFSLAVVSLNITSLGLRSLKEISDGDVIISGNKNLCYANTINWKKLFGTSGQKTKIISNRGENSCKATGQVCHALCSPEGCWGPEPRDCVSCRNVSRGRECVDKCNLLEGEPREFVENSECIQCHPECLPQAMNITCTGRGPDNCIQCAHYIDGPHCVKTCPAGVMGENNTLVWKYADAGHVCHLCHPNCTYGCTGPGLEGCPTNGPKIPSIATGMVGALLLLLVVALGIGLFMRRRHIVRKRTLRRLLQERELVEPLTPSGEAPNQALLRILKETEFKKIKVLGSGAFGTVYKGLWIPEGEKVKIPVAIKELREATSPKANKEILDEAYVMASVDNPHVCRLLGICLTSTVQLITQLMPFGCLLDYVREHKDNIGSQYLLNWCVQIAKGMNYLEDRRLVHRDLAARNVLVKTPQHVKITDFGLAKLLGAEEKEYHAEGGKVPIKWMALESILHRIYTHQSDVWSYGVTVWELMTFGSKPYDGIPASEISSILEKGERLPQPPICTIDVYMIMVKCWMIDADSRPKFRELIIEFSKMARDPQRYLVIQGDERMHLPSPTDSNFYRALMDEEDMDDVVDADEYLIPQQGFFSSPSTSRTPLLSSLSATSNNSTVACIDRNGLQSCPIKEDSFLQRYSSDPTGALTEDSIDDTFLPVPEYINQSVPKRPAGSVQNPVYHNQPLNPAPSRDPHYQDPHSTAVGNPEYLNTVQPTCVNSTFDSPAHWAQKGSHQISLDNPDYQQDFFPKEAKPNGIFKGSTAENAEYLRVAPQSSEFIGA
Type: cell-based
Method: A murine haematopoietic cell line is genetically modified so as to express functional human EGF-R. The proliferation of this cell line can therefore be stimulated by EGF.
The test is carried out as follows: • The cells are cultivated in RPMI/1640 medium. The proliferation is stimulated with 20 ng/ml of human EGF (Promega). To investigate the inhibitory activity of the compounds according to the invention these compounds are dissolved in 100% dimethylsulphoxide (DMSO) and added to the cultures in various dilutions, the maximum DMSO concentration being 1%. The cultures are incubated for 48 hours at 37° C.
In order to determine the inhibitory activity of the compounds according to the invention the relative cell number is measured in O.D. units using the Cell Titer 96™ AQueous Non-Radioactive Cell Proliferation Assay (Promega). The relative cell number is calculated as a percentage of the control and the concentration of active substance which inhibits the proliferation of the cells by 50% (IC50) is derived therefrom.

| SMILES | IC50 [nM] |
| --- | --- |
| COc1cc2ncnc(Nc3cccc(Cl)c3F)c2cc1O[C@H]1CC[C@H](N2CCNC(=O)C2)CC1 [1(3) (trans compound), 4-[(3-chloro-2-fluoro-phenyl)amino]-6-[trans-4-(3-oxo-piperazin-1-yl)-cyclohexyloxy]-7-methoxy-quinazoline] | 1 |
| COc1cc2ncnc(Nc3cccc(Cl)c3F)c2cc1O[C@H]1CC[C@H](N2CC[C@@H](O)C2)CC1 [1(1) (trans compound), 4-[(3-chloro-2-fluoro-phenyl)amino]-6-[(R)-trans-4-(3-hydroxy-pyrrolidin-1-yl)-cyclohexyloxy]-7-methoxy-quinazoline] | 1 |
| COc1cc2ncnc(Nc3cccc(Cl)c3F)c2cc1O[C@H]1CC[C@H](N2CCOCC2)CC1 [1 (trans compound), 4-[(3-chloro-2-fluoro-phenyl)amino]-6-[trans-4-(morpholin-4-yl)-cyclohexyloxy]-7-methoxy-quinazoline] | 1 |

Further lines, results first:

| IC50 [nM] | SMILES |
| --- | --- |
| 1 | COc1cc2ncnc(Nc3cccc(Cl)c3F)c2cc1O[C@H]1CC[C@H](N2CCN(C)C(=O)C2)CC1 [(36)] |
| 1 | COc1cc2ncnc(Nc3cccc(Cl)c3F)c2cc1O[C@H]1CC[C@H](N2CCC[C@H]2C(N)=O)CC1 [1(5) (trans compound), 4-[(3-chloro-2-fluoro-phenyl)amino]-6-{(S)-trans-4-[2-(aminocarbonyl)-pyrrolidin-1-yl]-cyclohexyloxy]-7-methoxy-quinazoline] |
| 1 | COc1cc2ncnc(Nc3cccc(Cl)c3F)c2cc1O[C@H]1CC[C@H](N2CCC(C#N)CC2)CC1 [(44)] |
